Assay results as given in paper PMC8153077, “Inhibiting quinolone biosynthesis of Burkholderia” (Chemical Science, 2021).
pIC50: −log10 of the molar value.

Columns and labels:
HmqD [1] = target: T1, HmqD (Burkholderia ambifaria, UniProt Q0B3G0); assay: competitive live-cell activity-based labelling against probe CAA, in-gel fluorescence
T1 construct: gene Bamb_5766; recombinant HmqD overexpressed in live E. coli BL21

HmqD [2] = target: T1, HmqD; assay: live-cell activity-based labelling with click chemistry and in-gel fluorescence; proteomic identification of the modified site
From the text: live-cell activity-based labelling with click chemistry and in-gel fluorescence; proteomic identification of the modified site on HmqD | identified as site of modification by probe CAA only the active site cysteine C114

T1 sequence (Q0B3G0 entry or part of it): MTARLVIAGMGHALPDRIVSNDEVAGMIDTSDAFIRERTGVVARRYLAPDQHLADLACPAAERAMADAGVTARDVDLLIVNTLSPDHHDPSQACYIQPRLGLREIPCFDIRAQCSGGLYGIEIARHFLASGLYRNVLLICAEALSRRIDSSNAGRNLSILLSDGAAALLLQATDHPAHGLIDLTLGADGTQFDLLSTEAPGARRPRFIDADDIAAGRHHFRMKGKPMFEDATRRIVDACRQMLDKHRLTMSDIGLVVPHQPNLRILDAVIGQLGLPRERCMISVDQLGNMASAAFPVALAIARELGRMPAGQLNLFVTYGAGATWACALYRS

SMILES	pIC50 (HmqD [1])	live-cell activity-based labelling with click chemistry and in-gel fluorescence; (HmqD [2])
O=C(CCl)c1ccccc1 [compound 9]	6.70	–
Nc1ccc(I)cc1C(=O)CCl [compound 4]	7.00	–
Nc1cc2c(cc1C(=O)CCl)OCCO2 [compound 7]	6.70	–
C#CCCC(=O)NCc1ccc(N)c(C(=O)CCl)c1 [CAA]	–	15 nM
